Values after ≈ are worked out from the molar mass of the structure shown.
Experiments:
Assay in all cases: MIC/MBC antibiotic sensitivity (CLSI)
[1] = system: Achromobacter xylosaxidans (HNA001); assay type: cell-based, Achromobacter xylosoxidans
Description: (§1) The new compounds of the invention were synthesized following the general method of preparation (Tetrahedron, 2001, 57, 1671-1675), from the reaction between an intermediary compound of the acyl thiourea and HgCl2 in presence of trimethylamine. The products were adequately characterized regarding its chemistry. The antibacterial activity of the new compounds was assayed against two Gram-positive reference strains: Staphylococcus aureus (ATCC6538) and Bacillus cereus (ATCC10876), a fermenting Gram-negative strain: Escherichia coli (ATCC25922), and 26 non-fermenting Gram-negative isolates, including 3 reference strains: Pseudomonas aeruginosa (PAO1), Bordetella bronchiseptica (9.73H+), and Inquilinus limosus (DSM16000), and 23 isolates recovered from patients suffering from cystic fibrosis, including one Achromobacter xylosoxidans isolate, and 22 isolates belonging to the Burkholderia cepacia complex. The later were selected because they presented resistance to a high number of antimicrobial compounds, among a panel of 125 clinical isolates previously analyzed for its resistance against 17 antimicrobial compounds (1,2). The antibiotic sensitivity studies were performed by applying two quantitative methods which allow to determine the minimum inhibitory concentration (MIC) and the minimum bactericidal concentration (MBC).
(§2) The compounds obtained in Examples 1 and 2 were assayed against 23 isolates recovered from the sputum of patients suffering from cystic fibrosis being treated at the Sor Maria Ludovica Children Hospital (La Plata, Buenos Aires, Argentina). Nineteen of these isolates were selected for being highly resistant to most of the antimicrobial agents of clinical use from a panel of 125 isolates previously characterized in Martina et al. (1). Reference strains were also included: Gram (+) bacteria: B. cereus and S. aureus, fermenting Gram (−) bacteria: E. coli, and non-fermenting Gram (−) bacteria: Inquilinus limosus (DSM16000), B. bronchiseptica, and Pseudomonas aeruginosa (PAO1). The antibiotic sensitivity studies were performed applying two quantitative methods which allow to determine the minimum inhibitory concentration (MIC) and the minimum bactericidal concentration (MBC) according to the criteria established by the Clinical and Laboratory Standards Institute (CLSI) (4). For comparative purposes, three antibiotics commonly used in the treatment of pulmonary infections in cystic fibrosis patients were included in the study: tobramycin, ceftazidime and meropenem.

[2] = system: Burkholderia multivorans (CBC 016); assay type: cell-based; details: Burkholderia multivorans; Meropenem, CLSI criteria; B. multivorans (CBC 016); read-out: MIC (R/I/S category)
Description: as §1, §2

[3] = system: Burkholderia cepacia (CBC 010); assay type: cell-based
Description: as §1, §2

[4] = system: Inquilinus limosus (DSM16000); assay type: cell-based
Description: as §1, §2

[5] = system: Burkholderia multivorans (CBC 018); assay type: cell-based
Description: as §1, §2

[6] = system: Burkholderia multivorans (CBC 020); assay type: cell-based
Description: as §1, §2

[7] = system: Staphylococcus aureus (ATCC6538); assay type: cell-based; details: Staphylococcus aureus, S. aureus (ATCC6538)
Description: as §1, §2

[8] = system: Burkholderia cenocepacia (CBC 029); assay type: cell-based; details: Burkholderia cenocepacia; Meropenem, CLSI criteria; B. cenocepacia (CBC 029); read-out: MIC (R/I/S category)
Description: as §1, §2

[9] = system: Burkholderia cenocepacia (CBC 032); assay type: cell-based; details: Burkholderia cenocepacia; Meropenem, CLSI criteria; B. cenocepacia (CBC 032); read-out: MIC (R/I/S category)
Description: as §1, §2

[10] = system: Burkholderia multivorans (CBC 019); assay type: cell-based
Description: as §1, §2

[11] = system: Pseudomonas aeruginosa (PAO1); assay type: cell-based; details: Pseudomonas aeruginosa, P. aeruginosa (PAO1)
Description: as §1, §2

[12] = system: Burkholderia multivorans (CBC 022); assay type: cell-based
Description: as §1, §2

[13] = system: Burkholderia multivorans (CBC 021); assay type: cell-based
Description: as §1, §2

[14] = system: Burkholderia cenocepacia (CBC 036); assay type: cell-based; details: Burkholderia cenocepacia; Meropenem, CLSI criteria; B. cenocepacia (CBC 036); read-out: MIC (R/I/S category)
Description: as §1, §2

B. contaminans (HNBC001) = assay type: cell-based; details: Meropenem, CLSI criteria, read-out: MIC (R/I/S category)
Description: as §1, §2

[15] = system: Burkholderia cepacia (CBC 011); assay type: cell-based
Description: as §1, §2

[16] = system: Burkholderia cenocepacia (HE001); assay type: cell-based; details: Burkholderia cenocepacia; Meropenem, CLSI criteria; B. cenocepacia (HE001); read-out: MIC (R/I/S category)
Description: as §1, §2

[17] = system: Bacillus cereus (ATCC10876); assay type: cell-based
Description: as §1, §2

[18] = system: Burkholderia cenocepacia (CBC 031); assay type: cell-based; details: Burkholderia cenocepacia; Meropenem, CLSI criteria; B. cenocepacia (CBC 031); read-out: MIC (R/I/S category)
Description: as §1, §2

[19] = system: Burkholderia cenocepacia (CBC 024); assay type: cell-based; details: Burkholderia cenocepacia; Meropenem, CLSI criteria; B. cenocepacia (CBC 024); read-out: MIC (R/I/S category)
Description: as §1, §2

[20] = system: Burkholderia seminalis (CBC 042); assay type: cell-based; details: Burkholderia seminalis; Meropenem, CLSI criteria; B. seminalis (CBC 042); read-out: MIC (R/I/S category)
Description: as §1, §2

[21] = system: Burkholderia cenocepacia (CBC 023); assay type: cell-based; details: Burkholderia cenocepacia; Meropenem, CLSI criteria; B. cenocepacia (CBC 023); read-out: MIC (R/I/S category)
Description: as §1, §2

[22] = system: Burkholderia cenocepacia (CBC 033); assay type: cell-based; details: Burkholderia cenocepacia; Meropenem, CLSI criteria; B. cenocepacia (CBC 033); read-out: MIC (R/I/S category)
Description: as §1, §2

[23] = system: Escherichia coli (ATCC25922); assay type: cell-based; details: Escherichia coli, E. coli (ATCC25922)
Description: as §1, §2

Q: For `C[C@@H](O)[C@H]1C(=O)N2C(C(=O)O)=C(S[C@@H]3CN[C@H](C(=O)N(C)C)C3)[C@H](C)[C@H]12` [Meropenem, meropenem], which MBC ([1]; Achromobacter xylosaxidans (HNA001)) is on record?
A: Its MBC is 7.81 µg/mL (≈ 20.4 µM).

Q: What about the MIC ([1]; Achromobacter, Meropenem, CLSI criteria, A. xylosaxidans (HNA001), read-out: MIC (R/I/S category)) of the same molecule?
A: Its MIC is under 4 µg/mL.

Q: And the MIC [2]?
A: The MIC was over 16 µg/mL.

Q: And the MBC ([3]; Burkholderia cepacia (CBC 010))?
A: Its MBC is 3.9 µg/mL (≈ 10.2 µM).

Q: And the MIC ([3]; Burkholderia cepacia, Meropenem, CLSI criteria, B. cepacia (CBC 010), read-out: MIC (R/I/S category))?
A: The MIC was under 4 µg/mL.

Q: What about the MBC [4] of the same molecule?
A: The MBC was under 0.48 µg/mL.

Q: What about the MIC ([4]; read-out: MIC) of the same molecule?
A: Its MIC is under 0.48 µg/mL.

Q: And the MBC ([5]; Burkholderia multivorans (CBC 018), read-out: MBC)?
A: The MBC was 3.9 µg/mL (≈ 10.2 µM).

Q: And the MIC ([5]; Burkholderia multivorans, Meropenem, CLSI criteria, B. multivorans (CBC 018), read-out: MIC (R/I/S category))?
A: Its MIC is under 4 µg/mL.

Q: What about the MBC ([6]; Burkholderia multivorans (CBC 020)) of the same molecule?
A: The MBC was 31.2 µg/mL (≈ 81.5 µM).

Q: What about the MIC ([6]; Burkholderia multivorans, Meropenem, CLSI criteria, B. multivorans (CBC 020), read-out: MIC (R/I/S category)) of the same molecule?
A: Its MIC is under 4 µg/mL.

Q: What about the MBC ([7]; read-out: MBC) of the same molecule?
A: Its MBC is under 0.48 µg/mL.

Q: And the MIC ([7]; read-out: MIC)?
A: The MIC was under 0.48 µg/mL.

Q: What about the MIC [8] of the same molecule?
A: Its MIC is over 16 µg/mL.

Q: What about the MIC [9] of the same molecule?
A: The MIC was over 16 µg/mL.

Q: What about the MBC ([10]; Burkholderia multivorans (CBC 019)) of the same molecule?
A: Its MBC is 7.81 µg/mL (≈ 20.4 µM).

Q: And the MIC ([10]; Burkholderia multivorans, Meropenem, CLSI criteria, B. multivorans (CBC 019), read-out: MIC (R/I/S category))?
A: The MIC was under 4 µg/mL.

Q: And the MBC ([11]; read-out: MBC)?
A: Its MBC is under 0.48 µg/mL.

Q: And the MIC ([11]; read-out: MIC)?
A: The MIC was under 0.48 µg/mL.

Q: And the MBC ([12]; Burkholderia multivorans (CBC 022))?
A: The MBC was 7.81 µg/mL (≈ 20.4 µM).

Q: And the MIC ([12]; Burkholderia multivorans, Meropenem, CLSI criteria, B. multivorans (CBC 022), read-out: MIC (R/I/S category))?
A: The MIC was under 4 µg/mL.

Q: And the MBC ([13]; Burkholderia multivorans (CBC 021))?
A: The MBC was 7.81 µg/mL (≈ 20.4 µM).

Q: What about the MIC ([13]; Burkholderia multivorans, Meropenem, CLSI criteria, B. multivorans (CBC 021), read-out: MIC (R/I/S category)) of the same molecule?
A: The MIC was under 4 µg/mL.

Q: And the MIC [14]?
A: The MIC was over 16 µg/mL.

Q: What about the MIC (B. contaminans (HNBC001)) of the same molecule?
A: Its MIC is over 16 µg/mL.

Q: What about the MBC ([15]; Burkholderia cepacia (CBC 011)) of the same molecule?
A: The MBC was over 62.5 µg/mL.

Q: And the MIC ([15]; Burkholderia cepacia, Meropenem, CLSI criteria, B. cepacia (CBC 011), read-out: MIC (R/I/S category))?
A: The MIC was under 4 µg/mL.

Q: And the MIC [16]?
A: The MIC was over 16 µg/mL.

Q: And the MBC ([17]; read-out: MBC)?
A: The MBC was under 0.48 µg/mL.

Q: What about the MIC ([17]; read-out: MIC) of the same molecule?
A: Its MIC is under 0.48 µg/mL.

Q: What about the MIC [18] of the same molecule?
A: The MIC was over 16 µg/mL.

Q: And the MIC [19]?
A: Its MIC is over 16 µg/mL.

Q: What about the MIC [20] of the same molecule?
A: The MIC was over 16 µg/mL.

Q: And the MIC [21]?
A: Its MIC is over 16 µg/mL.

Q: What about the MIC [22] of the same molecule?
A: The MIC was over 16 µg/mL.

Q: And the MBC ([23]; read-out: MBC)?
A: Its MBC is under 0.48 µg/mL.

Q: And the MIC ([23]; read-out: MIC)?
A: Its MIC is under 0.48 µg/mL.
